Source: publication PMC10114980, “Triple targeting of mutant EGFR^L858R/T790M, COX-2, and 15-LOX: design and synthesis of novel quinazolinone tethered phenyl urea derivatives for anti-inflammatory and anticancer evaluation” (Journal of Enzyme Inhibition and Medicinal Chemistry, 2023)
Where “and” joins values, the source holds several entries; their conditions need not be identical. Equal values may be shown once.

How the values were obtained:
human recombinant COX-2 = target: T1, human recombinant COX-2 (Homo sapiens, UniProt P35354); assay: In vitro COX-2 inhibition assay kit (Cayman); type: biochemical; conditions: for COX-2 SI: Selectivity index = COX-1 IC50/COX-2 IC50; for IC50: human recombinant COX-2, mean ± SEM, n = 3 replicates
T1 sequence (P35354 18-604): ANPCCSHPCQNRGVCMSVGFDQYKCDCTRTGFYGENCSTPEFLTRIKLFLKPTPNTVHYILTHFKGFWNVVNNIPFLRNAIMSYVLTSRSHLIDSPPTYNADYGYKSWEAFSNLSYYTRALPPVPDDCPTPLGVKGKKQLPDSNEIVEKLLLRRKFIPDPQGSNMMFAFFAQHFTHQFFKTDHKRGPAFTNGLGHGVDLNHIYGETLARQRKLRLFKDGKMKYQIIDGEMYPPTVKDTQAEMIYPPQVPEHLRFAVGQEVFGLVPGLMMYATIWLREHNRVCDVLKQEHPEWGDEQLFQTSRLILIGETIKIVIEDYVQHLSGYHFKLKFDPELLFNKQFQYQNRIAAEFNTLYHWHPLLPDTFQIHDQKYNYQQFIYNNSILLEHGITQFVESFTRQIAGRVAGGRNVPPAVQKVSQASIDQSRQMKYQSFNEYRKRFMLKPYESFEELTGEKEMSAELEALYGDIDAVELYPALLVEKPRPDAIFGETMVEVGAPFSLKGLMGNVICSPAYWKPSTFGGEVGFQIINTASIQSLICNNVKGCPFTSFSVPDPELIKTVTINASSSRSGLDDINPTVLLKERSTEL
Description: The half-maximal inhibitory concentration (IC50, μM) was determined, and the COX-2 selectivity index (SI) was calculated as IC50 (COX-1)/IC50 (COX-2).

[1] = test system: LPS-induced NO production in RAW 264.7 cells; assay: NO production in LPS-activated RAW 264.7 macrophage cells (DAF-FM diacetate); type: cell-based; conditions: LPS-activated RAW 264.7 cells, mean ± SEM, three replicates; for IC50: Mus musculus, RAW264.7
Description: TNF-α and IL-6 production were detected in RAW 264.7 macrophage cell culture supernatants following the induction of inflammation by LPS. Moreover, the probes of oxidative species 2,7-dichlorofluorescein diacetate (DCFH-DA) (Molecular Probes) and NO, 4-amino-5-methylamino-2,7-difluorofluorescein diacetate (DAF-FM diacetate) (Molecular Probes) were used to investigate the antioxidant and NO production inhibitory potential of the test compounds. Briefly, RAW 264.7 cells were cultured in black 96 well plates (200 000 cells/mL, 100 µl/well) for 24 h followed by the incubation with the individual test compounds or the reference drugs at different concentrations (12.5, 25, 50, and 100 µM) for 2 h at 37 °C. LPS was then added at a final concentration of 1 µg/mL for an additional 18 h. The cell culture supernatant was collected from cells treated with the different compounds at 25 µM to measure TNF-α and IL-6 levels (1:10 dilution) using DuoSet ELISA kits (R&D Systems, Minneapolis, MN) following the manufacturer’s instructions. Then, the plates were washed to perform ROS and NO detection assays as detailed in our previous studies[16]^,[27].

[2] = test system: LPS-induced TNF-α production in RAW 264.7 cells; assay: TNF-α production in LPS-activated RAW 264.7 cells (ELISA); type: cell-based; conditions: LPS-activated RAW 264.7 cells treated with 25 µM of the compound
[3] = Cell viability assay against normal cell line (MTS); type: cell-based; conditions: mouse, RAW 264.7 cells, concentrations up to 50 μM, read-out: cell viability percentage of the control values
Description: To evaluate the possible non-selective cytotoxic effect of the investigated compounds (6a, 6c, 6d, 6e, 6j, 6l, 6m, 6n, 6o, and 6p) on normal cells, their effect on RAW 264.7 cells viability was assessed at different concentrations (12.5, 25, 50, and 100 µM). Cell viability was measured using 3-(4,5-dimethylthiazol-2-yl)-5-(3-carboxymethoxyphenyl)-2-(4 sulfophenyl)-2H-tetrazolium (MTS) assay (Promega, Madison, Wisconsin) according to the manufacturer’s instructions.

CCRF-CEM = assay: NCI single dose screen, CCRF-CEM; type: cell-based; conditions: Homo sapiens, leukaemia, single dose 10^−5 M, read-out: growth inhibition percentage
Description: (§1) Screening of the anticancer activity of the newly synthesised compounds (6a, 6c, 6d, 6e, 6j, 6l, 6m, 6n, 6o, and 6p) was performed by the US National Cancer Institute (NCI) using 60 different human tumour cell lines in accordance with standard procedures formerly reported.
(§2) In vitro anticancer screening was carried out for the selected compounds at a single dose (10^−5 M) against 60 different human tumour cell lines of nine different cancer cell types: leukaemia, lung, colon, CNS, melanoma, ovarian, renal, prostate, and breast cancers.

K-562 = assay: NCI single dose screen, K-562; type: cell-based; conditions: Homo sapiens, K562; K-562, leukaemia; single dose 10^−5 M; read-out: growth inhibition percentage
Description: as §1, §2

HOP-62 = assay: NCI single dose screen, HOP-62; type: cell-based; conditions: Homo sapiens; HOP-62, non-small cell lung cancer; single dose 10^−5 M; read-out: growth inhibition percentage
Description: as §1, §2

NCI-H226 = assay: NCI single dose screen, NCI-H226; type: cell-based; conditions: Homo sapiens; NCI-H226, non-small cell lung cancer; single dose 10^−5 M; read-out: growth inhibition percentage
Description: as §1, §2

HCT-116 = assay: NCI single dose screen, HCT-116; type: cell-based; conditions: Homo sapiens; HCT-116, colon cancer; single dose 10^−5 M; read-out: growth inhibition percentage
Description: as §1, §2

SF-268 = assay: NCI single dose screen, SF-268; type: cell-based; conditions: Homo sapiens; SF-268, CNS cancer; single dose 10^−5 M; read-out: growth inhibition percentage
Description: as §1, §2

U251 = assay: NCI single dose screen, U251; type: cell-based; conditions: Homo sapiens, U-251; U251, CNS cancer; single dose 10^−5 M; read-out: growth inhibition percentage
Description: as §1, §2

M14 = assay: NCI single dose screen, M14; type: cell-based; conditions: Homo sapiens; M14, melanoma; single dose 10^−5 M; read-out: growth inhibition percentage
Description: as §1, §2

SK-MEL-5 = assay: NCI single dose screen, SK-MEL-5; type: cell-based; conditions: Homo sapiens; SK-MEL-5, melanoma; single dose 10^−5 M; read-out: growth inhibition percentage
Description: as §1, §2

UACC-257 = assay: NCI single dose screen, UACC-257; type: cell-based; conditions: Homo sapiens; UACC-257, melanoma; single dose 10^−5 M; read-out: growth inhibition percentage
Description: as §1, §2

CAKI-1 = assay: NCI single dose screen, CAKI-1; type: cell-based; conditions: Homo sapiens; CAKI-1, renal cancer; single dose 10^−5 M; read-out: growth inhibition percentage
Description: as §1, §2

TK-10 = assay: NCI single dose screen, TK-10; type: cell-based; conditions: Homo sapiens; TK-10, renal cancer; single dose 10^−5 M; read-out: growth inhibition percentage
Description: as §1, §2

MCF7 = assay: NCI single dose screen, MCF7; type: cell-based; conditions: Homo sapiens; MCF7, breast cancer; single dose 10^−5 M; read-out: growth inhibition percentage
Description: as §1, §2

SMILES	COX-2 SI (human recombinant COX-2)	IC50 (human recombinant COX-2) [µM]	IC50 [1] [µM]	TNF-α concentration [2]	viability [3] [%]	inhibition at 10 µM (CCRF-CEM) [%]	inhibition at 10 µM (K-562) [%]	inhibition at 10 µM (HOP-62) [%]	inhibition at 10 µM (NCI-H226) [%]	inhibition at 10 µM (HCT-116) [%]	inhibition at 10 µM (SF-268) [%]	inhibition at 10 µM (U251) [%]	inhibition at 10 µM (M14) [%]	inhibition at 10 µM (SK-MEL-5) [%]	inhibition at 10 µM (UACC-257) [%]	inhibition at 10 µM (CAKI-1) [%]	inhibition at 10 µM (TK-10) [%]	inhibition at 10 µM (MCF7) [%]	NO IC50 [1]
CN1CN(NC(=O)Nc2ccccc2)C(=O)c2ccccc21 [Compound 6a, 1-(1-Methyl-4-oxo-1,4-dihydroquinazolin-3(2H)-yl)-3-phenylurea]	0.18	68.3 ± 1.89	0.97 ± 1.67	1157.00 ± 78.71 pg/mL	> 90	< 10	< 10	< 10	< 10	< 10	< 10	< 10	< 10	< 10	< 10	< 10	< 10	< 10	
CN1c2ccccc2C(=O)N(NC(=O)Nc2ccccc2)C1c1ccccc1 (stereo not shown) [Compound 6c, 1-(1-Methyl-4-oxo-2-phenyl-1,4-dihydroquinazolin-3(2H)-yl)-3-phenylurea]	0.29	3.41 ± 1.83	1.54 ± 1.02	955.00 ± 4.66 pg/mL	> 90	< 10	< 10	< 10	< 10	16.8	< 10	< 10	< 10	< 10	< 10	< 10	< 10	< 10	
CN1c2ccccc2C(=O)N(NC(=O)Nc2ccccc2)C1c1ccc(F)cc1 (stereo not shown) [Compound 6d, 1-(2-(4-Fluorophenyl)-1-methyl-4-oxo-1,4-dihydroquinazolin-3(2H)-yl)-3-phenylurea]	2.20	2.07 ± 1.39	4.12 ± 0.65	1222.00 ± 12.70 pg/mL	> 90	< 10	< 10	< 10	< 10	< 10	< 10	< 10	< 10	< 10	< 10	13	< 10	< 10	
CN1c2ccccc2C(=O)N(NC(=O)Nc2ccccc2)C1c1ccc([N+](=O)[O-])cc1 (stereo not shown) [Compound 6e, 1-(1-Methyl-2-(4-nitrophenyl)-4-oxo-1,4-dihydroquinazolin-3(2H)-yl)-3-phenylurea]	11.48	0.83 ± 1.37	> 100	1929.00 ± 53.88 pg/mL	> 90	< 10	< 10	< 10	< 10	53.1	< 10	< 10	67.2	< 10	< 10	< 10	< 10	< 10	did not show any significant NO inhibitory activity
COc1ccc(NC(=O)NN2C(=O)c3ccccc3N(C)C2c2ccc(OC)cc2)cc1 (stereo not shown) [Compound 6j, 1-(4-Methoxyphenyl)-3-(2-(4-methoxyphenyl)-1-methyl-4-oxo-1,4-dihydroquinazolin-3(2H)-yl)urea]	5.34	5.04 ± 1.56	13.5 ± 0.29	757.30 pg/mL and 757.30 ± 2.50 pg/mL	> 90	< 10	< 10	< 10	< 10	40.6	< 10	< 10	29.6	< 10	21.9	< 10	< 10	< 10	
CC1N(NC(=O)Nc2ccc(F)cc2)C(=O)c2ccccc2N1C (stereo not shown) [Compound 6l, 1–(1,2-Dimethyl-4-oxo-1,4-dihydroquinazolin-3(2H)-yl)-3-(4-fluorophenyl)urea]	0.05	1.49 ± 1.11	5.24 ± 0.5	1250.00 ± 5.82 pg/mL	> 90	< 10	< 10	< 10	< 10	< 10	< 10	< 10	< 10	< 10	< 10	< 10	15.4	10.7	
CN1c2ccccc2C(=O)N(NC(=O)Nc2ccc(F)cc2)C1c1ccccc1 (stereo not shown) [Compound 6m, 1-(4-Fluorophenyl)-3-(1-methyl-4-oxo-2-phenyl-1,4-dihydroquinazolin-3(2H)-yl)urea]	3.93	3.16 ± 1.22	10.3 ± 0.27	935.60 ± 3.85 pg/mL	> 90	< 10	< 10	< 10	< 10	< 10	< 10	< 10	18.9	15.9	< 10	< 10	< 10	21.2	
